Experimental data published in patent publication US11008314B2, “Compounds and methods for modulating interleukin-2-inducible t-cell kinase” (CORVUS PHARMACEUTICALS, INC., priority 2016, dated 2021).

Legend:
Assay type in all cases: biochemical
[1] = biological target: ITK (Homo sapiens (Human), UniProt Q08881); assay: IC50 against ITK
[2] = biological target: TXK (Homo sapiens (Human), UniProt P42681); assay: IC50 against TXK; conditions: for TXK/ITK: ratio of TXK IC50 to ITK IC50
[3] = biological target: JAK3 (Homo sapiens (Human), UniProt P52333); assay: IC50 against JAK3
JAK3, sequence (P52333 whole entry, species assumed): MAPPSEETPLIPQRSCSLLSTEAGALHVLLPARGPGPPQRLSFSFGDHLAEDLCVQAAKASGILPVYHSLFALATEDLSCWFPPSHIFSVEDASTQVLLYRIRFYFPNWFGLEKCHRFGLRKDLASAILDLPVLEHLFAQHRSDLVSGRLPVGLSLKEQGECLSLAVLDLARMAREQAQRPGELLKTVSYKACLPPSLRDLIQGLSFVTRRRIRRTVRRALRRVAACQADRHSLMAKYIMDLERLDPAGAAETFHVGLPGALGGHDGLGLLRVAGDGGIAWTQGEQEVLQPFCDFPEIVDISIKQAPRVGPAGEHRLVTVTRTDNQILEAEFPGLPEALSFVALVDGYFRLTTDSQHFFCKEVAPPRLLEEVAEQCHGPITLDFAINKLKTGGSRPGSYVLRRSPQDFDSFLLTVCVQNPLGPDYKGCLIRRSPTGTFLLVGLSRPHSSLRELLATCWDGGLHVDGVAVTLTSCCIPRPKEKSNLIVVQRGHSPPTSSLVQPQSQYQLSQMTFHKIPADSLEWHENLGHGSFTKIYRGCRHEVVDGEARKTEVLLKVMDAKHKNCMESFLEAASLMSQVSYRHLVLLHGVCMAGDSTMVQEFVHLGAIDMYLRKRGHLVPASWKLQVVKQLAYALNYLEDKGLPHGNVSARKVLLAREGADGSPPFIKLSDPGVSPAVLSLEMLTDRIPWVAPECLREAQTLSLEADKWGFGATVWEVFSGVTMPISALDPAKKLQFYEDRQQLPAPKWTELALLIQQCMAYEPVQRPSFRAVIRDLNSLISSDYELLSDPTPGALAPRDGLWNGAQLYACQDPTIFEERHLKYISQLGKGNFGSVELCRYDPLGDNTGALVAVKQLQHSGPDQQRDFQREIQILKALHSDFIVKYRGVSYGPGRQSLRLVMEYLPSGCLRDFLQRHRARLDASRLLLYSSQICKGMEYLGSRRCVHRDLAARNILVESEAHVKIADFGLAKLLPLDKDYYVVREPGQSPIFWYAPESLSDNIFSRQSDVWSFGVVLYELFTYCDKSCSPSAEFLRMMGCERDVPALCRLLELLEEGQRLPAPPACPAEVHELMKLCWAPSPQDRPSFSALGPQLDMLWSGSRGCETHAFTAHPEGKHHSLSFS

[4] = biological target: BTK (Homo sapiens (Human), UniProt Q06187); assay: IC50 against BTK
BTK, sequence (Q06187 whole entry, species assumed): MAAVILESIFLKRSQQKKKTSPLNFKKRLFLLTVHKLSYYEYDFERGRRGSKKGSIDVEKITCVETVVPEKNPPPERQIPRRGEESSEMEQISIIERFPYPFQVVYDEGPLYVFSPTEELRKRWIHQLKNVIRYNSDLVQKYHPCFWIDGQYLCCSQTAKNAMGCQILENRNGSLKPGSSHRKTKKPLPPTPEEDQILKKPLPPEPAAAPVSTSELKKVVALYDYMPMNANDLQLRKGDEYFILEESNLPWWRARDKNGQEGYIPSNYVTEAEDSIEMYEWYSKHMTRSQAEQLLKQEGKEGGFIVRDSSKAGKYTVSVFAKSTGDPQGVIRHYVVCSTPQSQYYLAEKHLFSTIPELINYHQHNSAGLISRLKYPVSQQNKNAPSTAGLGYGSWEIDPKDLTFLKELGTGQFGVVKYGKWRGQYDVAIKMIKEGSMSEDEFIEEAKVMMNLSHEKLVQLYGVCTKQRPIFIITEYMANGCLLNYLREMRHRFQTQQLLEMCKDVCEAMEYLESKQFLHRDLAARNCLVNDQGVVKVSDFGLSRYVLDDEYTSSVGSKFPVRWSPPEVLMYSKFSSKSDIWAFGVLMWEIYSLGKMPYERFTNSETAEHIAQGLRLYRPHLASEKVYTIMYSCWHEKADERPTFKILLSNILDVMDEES

TXK, sequence (P42681 whole entry, species assumed): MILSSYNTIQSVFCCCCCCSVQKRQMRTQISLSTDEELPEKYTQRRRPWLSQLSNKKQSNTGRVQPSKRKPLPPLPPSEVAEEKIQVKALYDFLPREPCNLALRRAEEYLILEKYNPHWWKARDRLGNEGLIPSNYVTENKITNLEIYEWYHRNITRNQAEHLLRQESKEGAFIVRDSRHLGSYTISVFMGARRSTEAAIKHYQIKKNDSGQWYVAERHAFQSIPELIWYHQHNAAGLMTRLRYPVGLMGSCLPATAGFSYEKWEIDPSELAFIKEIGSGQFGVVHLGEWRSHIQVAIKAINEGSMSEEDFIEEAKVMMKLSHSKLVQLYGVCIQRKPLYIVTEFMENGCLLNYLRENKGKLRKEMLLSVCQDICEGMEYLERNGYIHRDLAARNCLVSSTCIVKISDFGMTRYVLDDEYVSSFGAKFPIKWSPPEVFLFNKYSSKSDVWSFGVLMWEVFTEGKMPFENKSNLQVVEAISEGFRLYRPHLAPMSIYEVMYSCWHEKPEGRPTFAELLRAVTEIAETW
ITK, sequence (Q08881 whole entry): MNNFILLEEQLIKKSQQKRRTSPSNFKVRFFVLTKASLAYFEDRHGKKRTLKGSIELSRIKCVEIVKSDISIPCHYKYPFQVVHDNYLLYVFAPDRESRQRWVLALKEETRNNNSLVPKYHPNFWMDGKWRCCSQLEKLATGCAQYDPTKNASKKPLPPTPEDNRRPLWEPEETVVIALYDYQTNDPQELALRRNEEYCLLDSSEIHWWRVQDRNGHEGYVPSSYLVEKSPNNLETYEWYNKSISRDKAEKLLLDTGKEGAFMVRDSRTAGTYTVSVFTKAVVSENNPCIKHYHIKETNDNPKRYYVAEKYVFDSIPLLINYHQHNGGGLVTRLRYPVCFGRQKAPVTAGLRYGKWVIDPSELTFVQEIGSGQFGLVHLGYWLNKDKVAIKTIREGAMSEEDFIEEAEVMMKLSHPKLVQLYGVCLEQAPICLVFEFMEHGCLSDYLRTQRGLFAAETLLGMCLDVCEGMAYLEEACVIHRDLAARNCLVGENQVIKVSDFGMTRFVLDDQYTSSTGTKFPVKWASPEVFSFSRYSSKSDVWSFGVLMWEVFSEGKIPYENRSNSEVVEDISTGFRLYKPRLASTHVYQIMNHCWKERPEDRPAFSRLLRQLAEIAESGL

SMILES	IC50 [1] [nM]	IC50 [2] [nM]	TXK/ITK [2]	IC50 [3] [nM]	IC50 [4] [nM]
C=CC(=O)N1CCN(C(=O)c2cc(Sc3cnc(NC(=O)c4cccc(CN(C)C)c4)s3)c(C)cc2C)C[C@H]1CC [Compound 129]	< 10	10 to 100	46.0	100 to 1000	10 to 100
C=CC(=O)N1CCN(C(=O)c2cc(Sc3cnc(NC(=O)c4ccsc4)s3)c(C)cc2C)C[C@H]1CC [Compound 130]	< 10	10 to 100	7.0	100 to 1000	100 to 1000
C=CC(=O)N1CCN(C(=O)c2cc(Sc3cnc(NC(=O)c4cnsc4)s3)c(C)cc2C)C[C@H]1CC [Compound 131]	< 10	10 to 100	11.0	100 to 1000	100 to 1000
C=CC(=O)N1CCN(C(=O)c2cc(Sc3cnc(NC(=O)c4ccn(C)c4)s3)c(C)cc2OC)C[C@H]1CC [Compound 132]	< 10	10 to 100	–	100 to 1000	100 to 1000
C=CC(=O)N1CCN(C(=O)c2cc(Sc3cnc(Nc4ccccn4)s3)c(C)cc2C)CC1 [Compound 133]	< 10	< 10	4.6	10 to 100	10 to 100
C=CC(=O)N1CCN(C(=O)c2cc(Sc3cnc(Nc4ccc(CN(C)C)cn4)s3)c(C)cc2OC)CC1 [Compound 134]	< 10	< 10	–	10 to 100	< 10
C=CC(=O)N1CCCN(C(=O)c2cc(Sc3cnc(Nc4ncccc4C)s3)c(C)cc2OC)C[C@H]1C [Compound 136]	< 10	10 to 100	42	100 to 1000	10 to 100
C=CC(=O)N1CCN(C(=O)c2cc(C(C)c3cnc(Nc4ccccn4)s3)c(C)cc2OC)CC1 (centres unmarked) [Compound 137]	< 10	< 10	0.93	100 to 1000	< 10
C=CC(=O)N1CCN(C(=O)c2cc(Sc3cnc(Nc4ncc(C)cc4C)s3)c(C)cc2C)CC1 [Compound 138]	10 to 100	10 to 100	3.29	100 to 1000	100 to 1000
C=CC(=O)N1CCN(C(=O)c2cc(Sc3cnc(Nc4ncc(C)nc4C)s3)c(C)cc2C)CC1 [Compound 139]	10 to 100	10 to 100	4.65	100 to 1000	100 to 1000
C=CC(=O)N1CCN(C(=O)c2cc(C(C)c3cnc(NC(=O)C4CC4)s3)c(C)cc2OC)CC1 (centres unmarked) [Compound 140]	< 10	10 to 100	2.66	1000 to 10000	10 to 100
C=CC(=O)N1CCN(C(=O)c2cc(Sc3cnc(NC(=O)c4ccsc4)s3)c(C)cc2OC)CC1(C)C [Compound 141, N-(5-((5-(4-acryloyl-3,3-dimethylpiperazine-1-carbonyl)-4-methoxy-2-methylphenyl)thio)thiazol-2-yl)thiophene-3-carboxamide]	< 10	10 to 100	14.70	100 to 1000	10 to 100
C=CC(=O)N1CCN(C(=O)c2cc(Sc3cnc(NC(=O)c4ccsc4)s3)c(C)cc2OC)C(C)(C)C1 [Compound 142, N-(5-((5-(4-acryloyl-2,2-dimethylpiperazine-1-carbonyl)-4-methoxy-2-methylphenyl)thio)thiazol-2-yl)thiophene-3-carboxamide]	< 10	< 10	1.00	< 10	< 10
C=CC(=O)N1C[C@H]2CC[C@@H](C1)N2C(=O)c1cc(Sc2cnc(NC(=O)c3ccsc3)s2)c(C)cc1OC [Compound 143, N-(5-((5-((1R,5S)-3-acryloyl-3,8-diazabicyclo[3.2.1]octane-8-carbonyl)-4-methoxy-2-methylphenyl)thio)thiazol-2-yl)thiophene-3-carboxamide]	< 10	< 10	3.51	10 to 100	< 10
C=CC(=O)N1CCN(C(=O)c2cc(Sc3cnc(NC(=O)c4ccsc4)s3)c(C)cc2OC)[C@@H](C)C1 [Compound 144, (S)-N-(5-((5-(4-acryloyl-2-methylpiperazine-1-carbonyl)-4-methoxy-2-methylphenyl)thio)thiazol-2-yl)thiophene-3-carboxamide]	< 10	10 to 100	18.84	100 to 1000	10 to 100
C=CC(=O)N1CCC2(C1)CN(C(=O)c1cc(Sc3cnc(NC(=O)c4ccsc4)s3)c(C)cc1OC)C2 [Compound 145, N-(5-((5-(6-acryloyl-2,6-diazaspiro[3.4]octane-2-carbonyl)-4-methoxy-2-methylphenyl)thio)thiazol-2-yl)thiophene-3-carboxamide]	< 10	< 10	3.86	10 to 100	< 10
C=CC(=O)N1CC[C@@H](N(C)C(=O)c2cc(Sc3cnc(NC(=O)c4ccsc4)s3)c(C)cc2OC)C1 [Compound 146, (R)-N-(5-((5-((1-acryloylpyrrolidin-3-yl)(methyl)carbamoyl)-4-methoxy-2-methylphenyl)thio)thiazol-2-yl)thiophene-3-carboxamide]	< 10	< 10	3.19	< 10	< 10
